According to US20100190846A1, “MICROBICIDAL AGENT AND MICROBICIDAL COMPOSITION” (priority 2006, published 2010):

Tests used:
Assay in all cases: Agar dilution method microbicidal test; on Growth on agar plate: key: +: grew; −: did not grow
Assay type in all cases: cell-based
Bacillus cereus = tested on: Bacillus cereus; on Growth on agar plate: key: +: grew; −: did not grow
Method in brief: (§1)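 Plate-based MIC determination: 10 μL aliquots of 100-fold diluted MHB cultures inoculated onto compound-containing BHI agar (0.25–4.0 mg/mL final), then incubated overnight (18 hours, 37° C).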

[1] = tested on: Bacillus subtilis ATCC6633; settings: Bacillus subtilis ATCC 6633; on Growth on agar plate: key: +: grew; −: did not grow
Method in brief: as §1

Candida sp. = tested on: Candida sp. On Growth on agar plate: key: +: grew; −: did not grow.
Method in brief: (§2)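 Agar dilution in BHI agar at final 4.0, 3.0, 2.0, 1.0, 0.5 and 0.25 mg/mL (DMSO stocks; catechin in sterile water). Bacteria grown in MHB, diluted to 10^6/mL, spotted onto plates, incubated 18 hours at 37° C. MIC is the lowest concentration inhibiting growth.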

Escherichia coli = tested on: Escherichia coli; on Growth on agar plate: key: +: grew; −: did not grow
Method in brief: as §1

Pseudomonas aeruginosa = tested on: Pseudomonas aeruginosa; on Growth on agar plate: key: +: grew; −: did not grow
Method in brief: as §1

Streptococcus pneumoniae = tested on: Streptococcus pneumoniae; on Growth on agar plate: key: +: grew; −: did not grow
Method in brief: as §2

Streptococcus pyogenes = tested on: Streptococcus pyogenes; on Growth on agar plate: key: +: grew; −: did not grow
Method in brief: as §2

catechin [reference compound]
Growth on agar plate (Bacillus cereus; 0.25 mg/mL): +
Growth on agar plate (Bacillus cereus; 0.5 mg/mL): +
Growth on agar plate (Bacillus cereus; 1.0 mg/mL): −
Growth on agar plate (Bacillus cereus; 2.0 mg/mL): −
Growth on agar plate (Bacillus cereus; 3.0 mg/mL): −
Growth on agar plate (Bacillus cereus; 4.0 mg/mL): −
MIC (Bacillus cereus; BHI agar, 37° C., 18 hours): 1000 µg/mL
Growth on agar plate ([1]; 0.25 mg/mL): +
Growth on agar plate ([1]; 0.5 mg/mL): +
Growth on agar plate ([1]; 1.0 mg/mL): +
Growth on agar plate ([1]; 2.0 mg/mL): +
Growth on agar plate ([1]; 3.0 mg/mL): −
Growth on agar plate ([1]; 4.0 mg/mL): −
MIC ([1]; BHI agar, 37° C., 18 hours): 3000 µg/mL
Growth on agar plate (Candida sp.; 0.25 mg/mL): +
Growth on agar plate (Candida sp.; 0.5 mg/mL): +
Growth on agar plate (Candida sp.; 1.0 mg/mL): −
Growth on agar plate (Candida sp.; 2.0 mg/mL): −
Growth on agar plate (Candida sp.; 3.0 mg/mL): −
Growth on agar plate (Candida sp.; 4.0 mg/mL): −
MIC (Candida sp.; BHI agar, 37° C., 18 hours): 1000 µg/mL
Growth on agar plate (Escherichia coli; 0.25 mg/mL): +
Growth on agar plate (Escherichia coli; 0.5 mg/mL): +
Growth on agar plate (Escherichia coli; 1.0 mg/mL): +
Growth on agar plate (Escherichia coli; 2.0 mg/mL): +
Growth on agar plate (Escherichia coli; 3.0 mg/mL): +
Growth on agar plate (Escherichia coli; 4.0 mg/mL): +
MIC (Escherichia coli; BHI agar, 37° C., 18 hours): 2000 µg/mL
Growth on agar plate (Pseudomonas aeruginosa; 0.25 mg/mL): +
Growth on agar plate (Pseudomonas aeruginosa; 0.5 mg/mL): +
Growth on agar plate (Pseudomonas aeruginosa; 1.0 mg/mL): −
Growth on agar plate (Pseudomonas aeruginosa; 2.0 mg/mL): −
Growth on agar plate (Pseudomonas aeruginosa; 3.0 mg/mL): −
Growth on agar plate (Pseudomonas aeruginosa; 4.0 mg/mL): −
MIC (Pseudomonas aeruginosa; BHI agar, 37° C., 18 hours): 1000 µg/mL
Growth on agar plate (Streptococcus pneumoniae; 0.25 mg/mL): +
Growth on agar plate (Streptococcus pneumoniae; 0.5 mg/mL): +
Growth on agar plate (Streptococcus pneumoniae; 1.0 mg/mL): −
Growth on agar plate (Streptococcus pneumoniae; 2.0 mg/mL): −
Growth on agar plate (Streptococcus pneumoniae; 3.0 mg/mL): −
Growth on agar plate (Streptococcus pneumoniae; 4.0 mg/mL): −
MIC (Streptococcus pneumoniae; BHI agar, 37° C., 18 hours): 1000 µg/mL
Growth on agar plate (Streptococcus pyogenes; 0.25 mg/mL): +
Growth on agar plate (Streptococcus pyogenes; 0.5 mg/mL): +
Growth on agar plate (Streptococcus pyogenes; 1.0 mg/mL): +
Growth on agar plate (Streptococcus pyogenes; 2.0 mg/mL): −
Growth on agar plate (Streptococcus pyogenes; 3.0 mg/mL): −
Growth on agar plate (Streptococcus pyogenes; 4.0 mg/mL): −
MIC (Streptococcus pyogenes; BHI agar, 37° C., 18 hours): 2000 µg/mL
